Experimental data published in EP0153845A2, “CRF analogs” (THE SALK INSTITUTE FOR BIOLOGICAL STUDIES, priority 1984, dated 1985).

What was measured:
[1] = target: T1, cultured rat pituitary cells (Rattus norvegicus, UniProt P35353); test: Block of ACTH and β-endorphin secretion by cultured rat pituitary cells by CRF antagonists (procedure of Example XLIII); type: cell-based; conditions: different concentrations of oCRF; several concentrations of antagonist against oCRF (1 nM)
T1 sequence (P35353 24-415): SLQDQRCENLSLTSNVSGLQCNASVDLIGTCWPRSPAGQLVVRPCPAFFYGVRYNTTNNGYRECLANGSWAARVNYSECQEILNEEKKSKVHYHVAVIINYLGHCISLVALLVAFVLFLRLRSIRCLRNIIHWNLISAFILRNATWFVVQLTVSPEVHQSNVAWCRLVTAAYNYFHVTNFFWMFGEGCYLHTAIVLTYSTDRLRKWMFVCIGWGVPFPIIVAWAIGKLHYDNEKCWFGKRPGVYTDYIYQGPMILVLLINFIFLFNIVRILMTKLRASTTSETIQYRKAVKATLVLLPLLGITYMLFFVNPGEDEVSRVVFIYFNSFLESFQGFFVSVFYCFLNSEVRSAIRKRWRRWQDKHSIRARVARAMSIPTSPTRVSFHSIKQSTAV
Experimental: (§1) The effectiveness of synthetic CRF antagonists to block the secretion of ACTH and B-endorphin by cultured rat pituitary cells is measured using the procedure as generally set forth in Vale et al., Endocrinology, 91, 562 (1972). In vivo testing is carried out using the general procedure set forth in C. Rivier et al., Science, 218, 377 (1982).

[2] = system: GnRH-stimulated secretion of LH and FSH; test: Specificity: effect on GnRH-stimulated LH and FSH secretion; type: cell-based
[3] = system: TRF-stimulated secretion of TSH and prolactin; test: Specificity: effect on TRF-stimulated TSH and prolactin secretion; type: cell-based
[4] = system: GRF-stimulated secretion of GH; test: Specificity: effect on GRF-stimulated GH secretion; type: cell-based
[5] = system: spontaneous ACTH release; test: Spontaneous ACTH release by adrenalectomized rats; type: in vivo; conditions: iv injection of 3 mg/kg BW (2.7 nmole)
Experimental: as §1
The in vivo effect of CRF antagonists is tested on the spontaneous ACTH release by adrenalectomized rats.

[6] = system: CRF-induced ACTH secretion; test: CRF-induced ACTH secretion in intact, non-anesthetized rats; type: in vivo
[7] = system: ACTH rise due to ether-exposure; test: Ether-exposure (stressor) induced ACTH rise in intact rats; type: in vivo

## H-DLTFHLLREMLEMAKAEQEAEQAALNRLLLEEA-NH2 [AHC (9-41)]
[1]
  type of inhibition of oCRF-stimulated ACTH secretion: competitive inhibition
[2]
  effect on the GnRH-stimulated secretion of LH and FSH: no effect
[3]
  effect on the TRF-stimulated secretion of TSH and prolactin: no effect
[4]
  effect on the GRF-stimulated secretion of GH: no effect
[5]
  plasma ACTH levels (spontaneous ACTH release): marked decrease
[6]
  inhibition of CRF-induced ACTH secretion: dose-related inhibition
[7]
  ACTH rise due to ether-exposure: prevents most, but not all
